Assay results reported in patent US20220257595A1, “MACITENTAN FOR USE IN TREATING PORTOPULMONARY HYPERTENSION” (ACTELION PHARMACEUTICALS LTD, priority 2019, published 2022).

Experiments:
[1] = test system: patients with PoPH; assay: PORTICO safety: liver test and hemoglobin laboratory abnormalities; assay type: in vivo
Source text: For the evaluation of treatment-emergent safety endpoints in the DB phase, the observation period for each individual subject started at the time of the first administration of macitentan or placebo and ended with the start of OL treatment or 30 days after DB treatment discontinuation (whichever occurred first). The safety variables listed below apply to the DB treatment-emergent period and the macitentan treatment-emergent period. The DB treatment-emergent period was defined as the period from the DB treatment start date up to the EOT-DB+30 days or to the EOT-DB for patients entering OL. The macitentan treatment-emergent period was defined as the period from the first intake of macitentan up to end of macitentan treatment (EOMT)+30 days. EOMT was defined as EOT-DB (for patient who received macitentan only in the DB period) or EOT-OL when applicable. For patients entering OLE, the EOMT is EOT-OL. • Treatment-emergent AEs • Treatment-emergent deaths • Treatment-emergent serious adverse events (SAEs) • AEs leading to premature discontinuation of study treatment • Occurrence of post-baseline LFT (ALT and/or AST) abnormalities, classified as: • ≥3×ULN; • ≥5×ULN; • ≥8×ULN; • ≥3×ULN and <5×ULN; • […] and <8×ULN. • Occurrence of post-baseline ALT and/or AST abnormality 3×ULN and concomitant (i.e., at the same time) total bilirubin ≥2×ULN • Occurrence of post-baseline ALT and/or AST abnormality ≥3×ULN and concomitant (i.e., at the same time) total bilirubin ≥2×ULN and increased as compared to baseline • Occurrence of hemoglobin abnormalities, classified as: • ≤80 g/L, • >80 and ≤100 g/L, • decrease from baseline ≥20 g/L and <50 g/L, • decrease from baseline ≥50 g/L, • <100 g/L and concurrent (i.e., at the same time) decrease from baseline ≥20 g/L. • Other treatment-emergent marked laboratory abnormalities • Change from baseline/macitentan baseline to EOT-DB/EOMT in vital signs • Change from baseline/macitentan baseline to EOT-DB/EOMT in laboratory variables • Change from baseline/macitentan baseline to EOT-DB/EOMT in Child-Pugh classification • Change from baseline/macitentan baseline to EOT-DB/EOMT in MELD score
Treatment-emergent liver test and hemoglobin abnormalities are those that occurred during the DB treatment-emergent (SS) and macitentan treatment-emergent (MTS) periods that were not present at baseline.
For post-baseline liver test abnormalities, the following events are considered: • ALT and/or AST ≥3×ULN, • ALT and/or AST ≥5×ULN, • ALT and/or AST ≥8×ULN, • ALT and/or AST ≥3×ULN and <5×ULN, • ALT and/or AST ≥5×ULN and <8×ULN, • ALT and/or AST ≥3×ULN and concomitant (i.e., at the same time) total bilirubin ≥2×ULN. • ALT and/or AST 3×ULN and concomitant (i.e., at the same time) total bilirubin ≥2×ULN and increased as compared to baseline
The highest ALT or AST value at any post-baseline time point of assessment for DB treatment-emergent (SS) and macitentan treatment-emergent (MTS) periods was considered in the evaluation of incidences.
For the occurrence of post-baseline hemoglobin abnormalities, the following events were considered in the evaluation of incidences: • Hemoglobin ≤80 g/L, • Hemoglobin >80 and […], • Hemoglobin decrease from baseline ≥20 g/L and <50 g/L, • Hemoglobin decrease from baseline ≥50 g/L, • Hemoglobin <100 g/L and concurrent (i.e., at the same time) decrease from baseline ≥20 g/L.
The lowest hemoglobin value at any post-baseline time point of assessment for DB treatment-emergent (SS) and macitentan treatment-emergent (MTS) periods was considered in the evaluation of incidences.

[2] = test system: patients with PoPH; assay: Post-hoc: liver transplant perioperative risk classification (mPAP categories); assay type: in vivo, human; settings: for LT perioperative risk classification: Week 12 High risk (mPAP => 45 mm Hg): 10 mg, N = 43
Protocol: Post-Hoc, Exploratory Criteria: • Proportion of patients with NT-proBNP decrease from above 300 ng/L to below this threshold • Odds ratio for improvement to a more favorable liver transplant perioperative risk category • Odds ratio for becoming eligible for the MELD exception • Odds ratio for improvement to a more favorable waitlist mortality risk category
Risk categories related to liver transplant (transplant perioperative risk classification, MELD exception eligibility and waitlist mortality risk) were analyzed descriptively by treatment group using shift tables from baseline to Week 12 with categories as defined in Example 1.
LT perioperative risk classification, MELD exception eligibility, and waitlist mortality analyses were performed after the database lock and SDTMs delivery for the Double-Blind period. Number (%) of patients in following categories were summarized and presented in shift tables. The estimated odds ratio for risk improvement and corresponding 95% confidence intervals were obtained from an exact logistic regression (macitentan vs placebo) with factors for treatment and risk category at baseline.
The presence of moderate to severe pulmonary hypertension in patients with liver disease increases the risk of graft dysfunction and cardiopulmonary-related mortality after orthotopic liver transplant. According to the International Liver Transplant Society (ILTS) Practice Guidelines, liver transplant is conditional to appropriate hemodynamics due to the risk of cardiopulmonary-related mortality after liver transplant: • mPAP ≥45 mmHg is an absolute contraindication to liver transplant (high risk) as it is associated with 100% cardiopulmonary mortality • mPAP ≥35 mmHg and <45 mmHg, with increased PVR is associated with increased mortality (intermediate risk) of about 50%
mPAP <35 mmHg is associated with a low risk for liver transplant • LT perioperative risk classification

[3] = Phase 1, chronic hepatic impairment, varying grades of liver disease severity; cited from earlier work
[4] = DB phase, Safety set, 10 mg, N = 43, most extreme post-baseline value
[5] = single macitentan-treated patient, DB phase
[6] = single patient, DB+OL phase, malignant ascites and hepatic encephalopathy

CCCNS(=O)(=O)Nc1ncnc(OCCOc2ncc(Br)cn2)c1-c1ccc(Br)cc1 [macitentan, N-[5-(4-Bromophenyl)-6-[2-[(5-bromo-2-pyrimidinyl)oxy]ethoxy]-4-pyrimidinyl]-N′-propylsulfamide]
Patients with hemoglobin decreased to ≤80 g/L ([1]; DB phase): none
ALT or AST >= 5*ULN [1, 4]: 0/43
ALT or AST >= 5*ULN and <8*ULN [1, 4]: 0/43
ALT or AST >= 8*ULN [1, 4]: 0/43
Hemoglobin <= 80 g/L [1, 4]: 0/43
Patients with hemoglobin decreased to ≤100 g/L ([1]; DB phase, macitentan group): 3 patients
Patients with hemoglobin decreases of ≥20 g/L ([1]; DB phase, macitentan group (12 patients)): 27.9%
Patients with aminotransferase increase to >3×ULN ([1]; DB phase, macitentan-treated): 1 patient
ALT or AST >= 5*ULN and <8*ULN ([1]; macitentan DB + OL phase, Macitentan treated set, N = 84): 0/84
Patients with aminotransferase increase to >3×ULN ([1]; macitentan DB+OL phase): 2 patients
Patients with hemoglobin decrease of ≥50 g/L ([1]; macitentan DB+OL phase): 6 patients
Patients with hemoglobin decreased to ≤80 g/L ([1]; macitentan DB+OL phase): 4 patients
Patients with hemoglobin decreased to ≤100 g/L ([1]; macitentan DB+OL phase): 13 patients
Patients with hemoglobin decreases of ≥20 g/L ([1]; macitentan DB+OL phase (31 patients)): 37.3%
ALT in the patient with aminotransferase increase [1, 5]: 3.1 ×ULN
AST in the patient with aminotransferase increase [1, 5]: 3.2 ×ULN
Bilirubin in the patient with aminotransferase increase [1, 5]: 2.7 ×ULN
ALT in the additional patient with aminotransferase increase [1, 6]: 3.6 ×ULN
AST in the additional patient with aminotransferase increase [1, 6]: 8.6 ×ULN
Bilirubin in the additional patient with aminotransferase increase [1, 6]: 11.1 ×ULN
Macitentan-treated patients with Hy's Law range liver test abnormalities ([1]; whole study): 2 patients
LT perioperative risk classification: Week 12 High risk (mPAP => 45 mm Hg) ([2]; Baseline Intermediate risk (n = 16)): 0 n (%)
LT perioperative risk classification: Week 12 High risk (mPAP => 45 mm Hg) ([2]; Baseline Low risk (n = 2)): 0 n (%)
Odds to change to a more favorable LT perioperative risk category, macitentan vs placebo ([2]; Week 12, exact logistic regression): 3.73 times
Patients improving to a more favorable LT perioperative risk category ([2]; after 12 weeks, FAS no imputation, 18 patients): 41.9%
LT perioperative risk: Between-treatment odds ratio for improvement, OR ([2]; macitentan vs placebo, exact logistic regression, 95% CI 1.175, 13.401, p-value 0.0224): 3.732
Change in PK of macitentan and its metabolites in hepatic impairment [3]: no clinically relevant change
